Experimental findings from ChEMBL document CHEMBL3870335, “Bioactivity of topologically confined gramicidin A dimers” (Bioorg Med Chem, 2017) are described below.

Data set [1] in a line: Induction of bulk conductivity in soybean asolectin planar lipid bilayers assessed as residual conductance of black lipid bilayer at 1 nM at pH 8.
Data set [2] is described as follows: Induction of bulk conductivity in soybean asolectin planar lipid bilayers assessed as residual conductance of black lipid bilayer at 500 nM at pH 8.
Another data set concerns Escherichia coli. Kind of data set: Antimicrobial activity against Escherichia coli ATCC 25922 after 16 to 20 hrs by broth microdilution method. Format: functional. In general terms: Dilution methods test growth across graded concentrations, often in twofold steps.
Data set [3] is described as follows: Induction of bulk conductivity in soybean asolectin planar lipid bilayers assessed as residual conductance of black lipid bilayer at 250 nM at pH 8.
The subject of a further data set is Enterococcus faecalis. Kind of data set: Antimicrobial activity against Enterococcus faecalis ATCC 29212 after 16 to 20 hrs by broth microdilution method. Format: functional.
The subject of a further data set is Staphylococcus aureus. As to the kind of experiment: Antimicrobial activity against methicillin-resistant Staphylococcus aureus ATCC 43300 after 16 to 20 hrs by broth microdilution method. It is filed as functional.
The test system of a further data set is Enterococcus faecium. As to the kind of experiment: Antimicrobial activity against Enterococcus faecium DSMZ 20477 after 16 to 20 hrs by broth microdilution method. It is filed as functional.
Another data set concerns Streptococcus pneumoniae. As to the kind of experiment: Antimicrobial activity against Streptococcus pneumoniae serotype 19A after 16 to 20 hrs by broth microdilution method. Format: functional.
The subject of the next data set is Klebsiella pneumoniae. Kind of data set: Antimicrobial activity against Klebsiella pneumoniae ATCC 13883 after 16 to 20 hrs by broth microdilution method. Format: functional.
A further data set relates to Proteus mirabilis. As to the kind of experiment: Antimicrobial activity against Proteus mirabilis ATCC 7002 after 16 to 20 hrs by broth microdilution method. It is filed as functional.
Data set [4] relates to Staphylococcus epidermidis. Kind of data set: Antimicrobial activity against Staphylococcus epidermidis PP62A after 16 to 20 hrs by broth microdilution method. Format: functional.
In another data set the test system is Pseudomonas aeruginosa. Kind of data set: Antimicrobial activity against Pseudomonas aeruginosa ATCC 27853 after 16 to 20 hrs by broth microdilution method. It is filed as functional.
Data set [5] has as its system Plasmodium falciparum. As to the kind of experiment: Antimalarial activity against chloroquine-sensitive Plasmodium falciparum 3D7 after 72 hrs by NBT based LDH assay. It is filed as functional. Particulars: 3D7, 72 h.
Data set [6] in a line: Stability of the compound in 1,4-dioxane assessed as negative cotton effect at 50 uM by CD spectroscopic method. It is filed as physicochemical.
For data set [7], the system named is Plasmodium falciparum. As to the kind of experiment: Antimalarial activity against chloroquine-resistant Plasmodium falciparum Dd2 after 72 hrs by NBT based LDH assay. It is filed as functional. Particulars: Dd2, 72 h.
Data set [8] can be described thus: Hemolytic activity against human erythrocytes at 20 to 140 uM after 30 mins. Format: ADME, cell-based. Particulars: erythrocyte, 0.5 h.
Data set [9] in a line: Stability of the compound in THF assessed as negative cotton effect at 50 uM by CD spectroscopic method. It is filed as physicochemical.
Data set [10] is described as follows: Stability of the compound in MeOH assessed as negative cotton effect at 50 uM by CD spectroscopic method. It is filed as physicochemical.
A short description of data set [11]: Stability of the compound in n-Octanol assessed as negative cotton effect at 50 uM by CD spectroscopic method. It is filed as physicochemical.
Data set [12] in a line: Stability of the compound in acetonitrile assessed as negative cotton effect at 50 uM by CD spectroscopic method. It is filed as physicochemical.
The nature of data set [13]: Induction of bulk conductivity in soybean asolectin planar lipid bilayers assessed as residual conductance of black lipid bilayer at 0.5 nM at pH 8.

Structures are written as SMILES. Converted amounts (≈) assume the structure as drawn.

As a reminder, the MIC is the lowest concentration that inhibits growth of the organism. Read a low MIC as a more susceptible organism. As to `CC(C)C[C@@H](NC(=O)[C@H](C)NC(=O)CNC(=O)[C@@H](NC(=O)CCS)C(C)C)C(=O)N[C@@H](C)C(=O)N[C@@H](C(=O)N[C@H](C(=O)N[C@@H](C(=O)N[C@@H](Cc1c[nH]c2ccccc12)C(=O)N[C@H](CC(C)C)C(=O)N[C@@H](Cc1c[nH]c2ccccc12)C(=O)N[C@H](CC(C)C)C(=O)N[C@@H](Cc1c[nH]c2ccccc12)C(=O)N[C@H](CC(C)C)C(=O)N[C@@H](Cc1c[nH]c2ccccc12)C(=O)NCCO)C(C)C)C(C)C)C(C)C`, the Activity in [1] stood at 0.7 uS; in data set [2] it was 42 uS. The MIC in the data set with Escherichia coli is more than 64 µg/mL.

As for `CC(C)C[C@H]1NC(=O)[C@H](C)NC(=O)CNC(=O)[C@H](C(C)C)NC(=O)CCSSCCC(=O)N[C@@H](C(C)C)C(=O)NCC(=O)N[C@@H](C)C(=O)N[C@H](CC(C)C)C(=O)N[C@@H](C)C(=O)N[C@H](C(C)C)C(=O)N[C@@H](C(C)C)C(=O)N[C@H](C(C)C)C(=O)N[C@@H](Cc2c[nH]c3ccccc23)C(=O)N[C@H](CC(C)C)C(=O)N[C@@H](Cc2c[nH]c3ccccc23)C(=O)N[C@H](CC(C)C)C(=O)N[C@@H](Cc2c[nH]c3ccccc23)C(=O)N[C@H](CC(C)C)C(=O)N[C@@H](Cc2c[nH]c3ccccc23)C(=O)NCCSSCCNC(=O)[C@H](Cc2c[nH]c3ccccc23)NC(=O)[C@@H](CC(C)C)NC(=O)[C@H](Cc2c[nH]c3ccccc23)NC(=O)[C@@H](CC(C)C)NC(=O)[C@H](Cc2c[nH]c3ccccc23)NC(=O)[C@@H](CC(C)C)NC(=O)[C@H](Cc2c[nH]c3ccccc23)NC(=O)[C@@H](C(C)C)NC(=O)[C@H](C(C)C)NC(=O)[C@@H](C(C)C)NC(=O)[C@H](C)NC1=O`, the Activity in data set [3] is less than 0.3 uS.

Consider `CC(C)C[C@@H](NC(=O)[C@H](C)NC(=O)CNC(=O)[C@@H](NC(=O)CCSSc1ccc([N+](=O)[O-])c(C(=O)O)c1)C(C)C)C(=O)N[C@@H](C)C(=O)N[C@@H](C(=O)N[C@H](C(=O)N[C@@H](C(=O)N[C@@H](Cc1c[nH]c2ccccc12)C(=O)N[C@H](CC(C)C)C(=O)N[C@@H](Cc1c[nH]c2ccccc12)C(=O)N[C@H](CC(C)C)C(=O)N[C@@H](Cc1c[nH]c2ccccc12)C(=O)N[C@H](CC(C)C)C(=O)N[C@@H](Cc1c[nH]c2ccccc12)C(=O)NCCO)C(C)C)C(C)C)C(C)C`, for which the Activity in data set [1] worked out at 0.2 uS; in data set [2], 115 uS. The MIC was 1 µg/mL (≈ 0.467 µM) against Enterococcus faecalis; more than 64 µg/mL in the data set with Staphylococcus aureus; more than 64 µg/mL in the data set on Escherichia coli; 0.5 µg/mL (≈ 0.234 µM) with Enterococcus faecium; more than 64 µg/mL in the data set on Streptococcus pneumoniae; more than 64 µg/mL against Klebsiella pneumoniae. For the same molecule, the MIC was more than 64 µg/mL with Proteus mirabilis, 1 µg/mL (≈ 0.467 µM) in [4] and more than 64 µg/mL in the data set on Pseudomonas aeruginosa.

As a reminder, the IC50 is the concentration that gives 50% inhibition. Consider `CC(=O)N[C@H](C(=O)NCC(=O)N[C@@H](C)C(=O)N[C@H](CC(C)C)C(=O)N[C@@H](C)C(=O)N[C@@H](C(=O)N[C@H](C(=O)N[C@@H](C(=O)N[C@@H](Cc1c[nH]c2ccccc12)C(=O)N[C@H](CC(C)C)C(=O)N[C@@H](Cc1c[nH]c2ccccc12)C(=O)N[C@H](CC(C)C)C(=O)N[C@@H](Cc1c[nH]c2ccccc12)C(=O)N[C@H](CC(C)C)C(=O)N[C@@H](Cc1c[nH]c2ccccc12)C(=O)NCCSSCCNC(=O)[C@H](Cc1c[nH]c2ccccc12)NC(=O)[C@@H](CC(C)C)NC(=O)[C@H](Cc1c[nH]c2ccccc12)NC(=O)[C@@H](CC(C)C)NC(=O)[C@H](Cc1c[nH]c2ccccc12)NC(=O)[C@@H](CC(C)C)NC(=O)[C@H](Cc1c[nH]c2ccccc12)NC(=O)[C@H](NC(=O)[C@@H](NC(=O)[C@H](NC(=O)[C@H](C)NC(=O)[C@@H](CC(C)C)NC(=O)[C@H](C)NC(=O)CNC(=O)[C@@H](NC(C)=O)C(C)C)C(C)C)C(C)C)C(C)C)C(C)C)C(C)C)C(C)C)C(C)C`, for which the MIC was more than 64 µg/mL in the data set with Enterococcus faecalis; more than 64 µg/mL against Staphylococcus aureus; more than 64 µg/mL against Escherichia coli; more than 64 µg/mL in the data set on Enterococcus faecium; 0.1 µg/mL (≈ 0.0262 µM) in the data set on Streptococcus pneumoniae; more than 64 µg/mL in the data set with Klebsiella pneumoniae. Besides, the MIC (against Proteus mirabilis; in [4]; in the data set with Pseudomonas aeruginosa) was more than 64 µg/mL in each case. The half-maximal inhibitory concentration (IC50) in the data set with Plasmodium falciparum [5] was found to be 10 nM; in the data set on Plasmodium falciparum [7], 0.2 nM. Also, the Stability entry in [6], in data set [9], in data set [10] and in [11] was “Stable” throughout. Also, the Activity entry in data set [8] is listed as “Non-Toxic”.

With `CC(=O)N[C@H](C(=O)NCC(=O)N[C@@H](C)C(=O)N[C@H](CC(C)C)C(=O)N[C@@H](C)C(=O)N[C@@H](C(=O)N[C@H](C(=O)N[C@@H](C(=O)N[C@@H](Cc1c[nH]c2ccccc12)C(=O)N[C@H](CC(C)C)C(=O)N[C@@H](Cc1c[nH]c2ccccc12)C(=O)N[C@H](CC(C)C)C(=O)N[C@@H](Cc1c[nH]c2ccccc12)C(=O)N[C@H](CC(C)C)C(=O)N[C@@H](Cc1c[nH]c2ccccc12)C(=O)NCCSSCCC(=O)N[C@H](C(=O)NCC(=O)N[C@@H](C)C(=O)N[C@H](CC(C)C)C(=O)N[C@@H](C)C(=O)N[C@@H](C(=O)N[C@H](C(=O)N[C@@H](C(=O)N[C@@H](Cc1c[nH]c2ccccc12)C(=O)N[C@H](CC(C)C)C(=O)N[C@@H](Cc1c[nH]c2ccccc12)C(=O)N[C@H](CC(C)C)C(=O)N[C@@H](Cc1c[nH]c2ccccc12)C(=O)N[C@H](CC(C)C)C(=O)N[C@@H](Cc1c[nH]c2ccccc12)C(=O)NCCO)C(C)C)C(C)C)C(C)C)C(C)C)C(C)C)C(C)C)C(C)C)C(C)C`, the Stability result in data set [6], in data set [12], in data set [9], in data set [10] and in [11] was “Stable” in each case. In [8], the Activity result is listed as “Non-Toxic”.

As for `CC(C)C[C@@H](NC(=O)[C@H](C)NC(=O)CNC(=O)[C@@H](NC(=O)CCSSCCC(=O)N[C@H](C(=O)NCC(=O)N[C@@H](C)C(=O)N[C@H](CC(C)C)C(=O)N[C@@H](C)C(=O)N[C@@H](C(=O)N[C@H](C(=O)N[C@@H](C(=O)N[C@@H](Cc1c[nH]c2ccccc12)C(=O)N[C@H](CC(C)C)C(=O)N[C@@H](Cc1c[nH]c2ccccc12)C(=O)N[C@H](CC(C)C)C(=O)N[C@@H](Cc1c[nH]c2ccccc12)C(=O)N[C@H](CC(C)C)C(=O)N[C@@H](Cc1c[nH]c2ccccc12)C(=O)NCCO)C(C)C)C(C)C)C(C)C)C(C)C)C(C)C)C(=O)N[C@@H](C)C(=O)N[C@@H](C(=O)N[C@H](C(=O)N[C@@H](C(=O)N[C@@H](Cc1c[nH]c2ccccc12)C(=O)N[C@H](CC(C)C)C(=O)N[C@@H](Cc1c[nH]c2ccccc12)C(=O)N[C@H](CC(C)C)C(=O)N[C@@H](Cc1c[nH]c2ccccc12)C(=O)N[C@H](CC(C)C)C(=O)N[C@@H](Cc1c[nH]c2ccccc12)C(=O)NCCO)C(C)C)C(C)C)C(C)C`, the Activity was 0.4 uS in data set [13], 66 uS in [3] and “Non-Toxic” in data set [8]. Moreover, the IC50 was 31 nM in the data set on Plasmodium falciparum [5] and 26.5 nM in the data set with Plasmodium falciparum [7]. In the data set with Escherichia coli, this molecule had an MIC of more than 64 µg/mL.

For the molecule `CC(C)C[C@@H](NC(=O)[C@H](C)NC(=O)CNC(=O)[C@@H](NC(=O)CCS)C(C)C)C(=O)N[C@@H](C)C(=O)N[C@@H](C(=O)N[C@H](C(=O)N[C@@H](C(=O)N[C@@H](Cc1c[nH]c2ccccc12)C(=O)N[C@H](CC(C)C)C(=O)N[C@@H](Cc1c[nH]c2ccccc12)C(=O)N[C@H](CC(C)C)C(=O)N[C@@H](Cc1c[nH]c2ccccc12)C(=O)N[C@H](CC(C)C)C(=O)N[C@@H](Cc1c[nH]c2ccccc12)C(=O)NCCS)C(C)C)C(C)C)C(C)C`, the Activity in data set [1] was less than 0.3 uS; in [2], 0.3 uS. Also, the MIC with Enterococcus faecalis, against Staphylococcus aureus, in the data set with Escherichia coli, against Enterococcus faecium, against Streptococcus pneumoniae and against Klebsiella pneumoniae was more than 64 µg/mL each time. In addition, the minimal inhibitory concentration (MIC) (in the data set on Proteus mirabilis; in data set [4]; in the data set on Pseudomonas aeruginosa) was more than 64 µg/mL throughout.
